{"source": "patent US6274568A", "about": "“Compounds for altering cell surface sialic acids and methods of use therefor” (priority 1999, dated 2001)", "system": "NG108-15 cells", "assay": "Uptake of mannosamine precursors and conversion to sialic acids (precursor pool, gangliosides, glycoproteins) in NG108-15 cells, HPLC", "format": "cell-based, mouse neuroblastoma/rat glioma hybrid", "description": "Cells were harvested using hypertonic Ca^2+ - and Mg^2+ -free phosphate-buffered saline containing 1 mM EDTA, collected by centrifugation, and homogenized in ice-cold water using a Potter-Elvehjem glass/Teflon homogenizer. Methanol (2.6 volumes) was added, the suspension mixed and brought to ambient temperature, then chloroform (1.3 volumes, based on the original homogenate) was added and the suspension mixed vigorously. The suspension was centrifuged 30 min at 2,000×g. After collecting the supernatant, the pellet (containing precipitated proteins) was resuspended in water or concentrated ammonium hydroxide and a portion was used for protein assay (BCA, Pierce, Rockford, Ill.). The supernatant was partitioned by adjusting the chloroform-methanol-water ratio to 4:8:5.6 by addition of water, mixing thoroughly, and centrifuging as above. The upper phase was collected and a portion was subjected to reverse phase chromatography, using Sep-Pak C18 cartridges (Waters, Milford, Mass.), to isolate gangliosides (Schnaar, Methods Enzymol. 230:371, 1994).\nTo quantify and identify sialic acids, a portion of resolublized protein, organic/aqueous soluble pool, or reverse-phase purified gangliosides was evaporated to dryness in a 500-μl polypropylene tube and 20 μl of 0.1 M HCl/0.25 M NaCl was added. One Ampliwax bead (Perkin Elmer Corp, Foster City, Calif.) per reaction was added to block evaporation, and the sample hydrolyzed for 3 h at 80° C. Released sialic acids were analyzed by injecting an aliquot (1-10 μl) onto a Dionex high pressure liquid chromatography system (Dionex Corporation, Sunnyvale, Calif.) using a HPIC-AS6 column and a pulsed amperometric detector. Elution solutions were: A, 0.75 mM NaOH; B, 200 mM NaOH; and C, 400 mM sodium acetate in 50 mM NaOH. NeuAc and NeuPr were resolved by elution with 40% A, 50% B, 10% C for 15 min at 1 ml/min. NeuGc was resolved in separate injections using step gradient elution: 0-1.8 min, 18% A, 50% B, 32% C; 2-10 min, 40% B, 60% C. Sialic acids were identified by comparison of their elution time with those of standard NeuAc, NeuPr and NeuGc and were quantified in comparison to a standard curve of commercial NeuAc (for NeuAc and NeuPr) or NeuGc.\nTo confirm that the quantified peaks represented sialic acids, 10 μl of acid hydrolysates were treated with 1 μl of 1 M sodium phosphate (pH 7.2) and 10 μl of 0.1 M NaOH. Neutralized samples were incubated at 37° C. for 2 h with or without 0.9 U of N-acetylneuraminic acid aldolase (Sigma), 32 μM NADH and 0.1 μg lactate dehydrogenase. Sialic acid content in the ganglioside and glycoprotein fractions is expressed per mg of total cell protein. Precursor pool sialic acid (sialic acid plus CMP-sialic acid) was calculated by subtracting the ganglioside value from the organic/aqueous pool value, both expressed per mg of cell protein.\nSialic acid is biosynthesized from the precursor sugar N-acetylmannosamine (FIG. 2). In the present invention, sialic acids are converted on live neuronal cells from NeuAc, which is a key determinant for MAG binding, to NeuGc, which is non-permissive for MAG binding. A potential NeuGc precursor, N-glycolylmannosamine monoacetate (ManNGcMA, FIG. 1, R1 =H) was tested for its ability to generate altered sialic acids in neuronal and non-neuronal cells. N-propanoylmannosamine (ManNPr) and other N-acyl mannosamine derivatives have been used to modify glycoprotein associated sialic acids to the corresponding N-acylneuraminic acid. N-propanoyl-mannosamine (ManNPr), was used as a positive control. […] Cell pellets were fractioned into lipid associated, protein associated, and intracellular (lipid and cytoplasmic which may consist of oligosaccharide-bound, free, or CMP-activated sialic acid) sialic acids and hydrolyzed to release sialic acid. The hydrolyzed samples were then analyzed by HPLC to determine sialic acid content. […]", "key": {"[1]": {"conditions": "1 mM, 48 h, listed as ManNGc-OAc"}, "[2]": {"conditions": "1 mM, longer incubation (up to 144 h)"}}, "data": [{"smiles": "CC(=O)OCC(=O)N[C@@H]1C(OC(C)=O)O[C@H](COC(C)=O)[C@@H](OC(C)=O)[C@@H]1OC(C)=O", "note": "(stereo partly drawn) [ManNGcPA, N-glycolylmannosamine pentaacetate]", "values": [{"measurement": "conversion of ganglioside sialic acids to the NeuGc form", "setting": "0.02 mM, 48 h", "result": "~50", "unit": "%"}, {"measurement": "conversion to the NeuGc form relative to 5 mM ManNGcMA", "setting": "0.1 mM ManNGcPA vs 5 mM ManNGcMA, 48 h", "result": "≈ 2 fold"}, {"measurement": "glycoprotein sialic acids as NeuGc", "setting": "0.1 mM, 48 h", "result": 19.8, "unit": "%"}, {"measurement": "intracellular sialic acid in the form of NeuGc", "setting": "0.1 mM, 48 h", "result": 20.6, "unit": "%"}, {"measurement": "total lipid associated sialic acid as NeuGc", "setting": "0.1 mM, 48 h", "result": 17, "unit": "%"}, {"measurement": "protein sialic acid, average over the experiment (mean±S.D.)", "setting": "0.25 mM", "result": "3.8±1.2", "unit": "nmol/mg protein"}, {"measurement": "total ganglioside sialic acid, average over the experiment (mean±S.D.)", "setting": "0.25 mM", "result": "3.2±0.7 nmol/mg total cell protein"}, {"measurement": "glycoconjugate sialic acid in the NeuGc form", "setting": "0.25 mM or 1 mM, 96 h", "result": "> 70", "unit": "%"}, {"measurement": "reversal of the conversion on withdrawal of the precursor", "setting": "0.25 mM, 24 h of chase", "result": "partial reversal of the conversion"}, {"measurement": "conversion of NeuAc to NeuGc in gangliosides", "setting": "0.25 mM, 48 h", "result": "> 70", "unit": "%"}, {"measurement": "conversion of NeuAc to NeuGc in glycoproteins", "setting": "0.25 mM, 96 h, relative to >70% in gangliosides", "result": "a similar conversion in glycoproteins"}, {"measurement": "conversion from NeuAc to NeuGc (precursor pool)", "setting": "1 mM, 48 h", "result": 82, "unit": "%"}, {"measurement": "intracellular sialic acid in the form of NeuGc", "setting": "1.0 mM, 48 h", "result": 76.6, "unit": "%"}, {"measurement": "ganglioside (lipid associated) sialic acid as NeuGc", "setting": "[1]", "result": 51.5, "unit": "%"}, {"measurement": "glycoprotein (protein associated) sialic acid as NeuGc", "setting": "[1]", "result": 47, "unit": "%"}, {"measurement": "glycoconjugate sialic acid in the NeuGc form", "setting": "1 mM, 144 h", "result": 80, "unit": "%"}, {"measurement": "ganglioside sialic acid as NeuGc", "setting": "[2]", "result": "≈ 80%"}, {"measurement": "glycoprotein sialic acid as NeuGc", "setting": "[2]", "result": "60-70%"}, {"measurement": "sialic acid precursor pool in the NeuGc form", "setting": "1 mM, within 24 h (remained high up to 144 h)", "result": "> 80", "unit": "%"}, {"measurement": "sialic acid precursor pool size", "setting": "0.1 or 1.0 mM ManNGcPA, or 5 mM ManNGcMA, 48 h", "result": "none of these treatments significantly altered the sialic acid precursor pool size"}, {"measurement": "change in lipid or protein associated sialic acid compared to DMSO treated control", "setting": "0.1 or 1.0 mM, 48 h", "result": "no significant decrease in cell viability, or change in lipid or protein associated sialic acid"}, {"measurement": "total ganglioside sialic acid level", "setting": "0.1 or 1.0 mM, 48 h", "result": "not significantly altered"}, {"measurement": "total glycoprotein sialic acid level", "setting": "0.1 or 1.0 mM, 48 h", "result": "not significantly altered"}, {"measurement": "increase in potency due to peracetylation", "setting": "ManNGcPA vs ManNGcMA, 48 h", "result": 100, "unit": "fold"}]}]}
